Laboratory results published in ChEMBL document CHEMBL3217606, “New positive allosteric modulators of the metabotropic glutamate receptor 2 (mGluR2). Identification and synthesis of N-propyl-5-substituted isoquinolones” (Medchemcomm, 2011).

How the values were obtained:
[1] = target: T1, Metabotropic glutamate receptor 2 (Homo sapiens, UniProt Q14416); experiment: Positive allosteric modulation of human mGluR2 expressed in CHO cells assessed as incorporation of [35S]GTPgammaS after 30 mins by scintillation counting analysis; format: functional, cell-based
Target sequence in this assay (Q14416 whole entry): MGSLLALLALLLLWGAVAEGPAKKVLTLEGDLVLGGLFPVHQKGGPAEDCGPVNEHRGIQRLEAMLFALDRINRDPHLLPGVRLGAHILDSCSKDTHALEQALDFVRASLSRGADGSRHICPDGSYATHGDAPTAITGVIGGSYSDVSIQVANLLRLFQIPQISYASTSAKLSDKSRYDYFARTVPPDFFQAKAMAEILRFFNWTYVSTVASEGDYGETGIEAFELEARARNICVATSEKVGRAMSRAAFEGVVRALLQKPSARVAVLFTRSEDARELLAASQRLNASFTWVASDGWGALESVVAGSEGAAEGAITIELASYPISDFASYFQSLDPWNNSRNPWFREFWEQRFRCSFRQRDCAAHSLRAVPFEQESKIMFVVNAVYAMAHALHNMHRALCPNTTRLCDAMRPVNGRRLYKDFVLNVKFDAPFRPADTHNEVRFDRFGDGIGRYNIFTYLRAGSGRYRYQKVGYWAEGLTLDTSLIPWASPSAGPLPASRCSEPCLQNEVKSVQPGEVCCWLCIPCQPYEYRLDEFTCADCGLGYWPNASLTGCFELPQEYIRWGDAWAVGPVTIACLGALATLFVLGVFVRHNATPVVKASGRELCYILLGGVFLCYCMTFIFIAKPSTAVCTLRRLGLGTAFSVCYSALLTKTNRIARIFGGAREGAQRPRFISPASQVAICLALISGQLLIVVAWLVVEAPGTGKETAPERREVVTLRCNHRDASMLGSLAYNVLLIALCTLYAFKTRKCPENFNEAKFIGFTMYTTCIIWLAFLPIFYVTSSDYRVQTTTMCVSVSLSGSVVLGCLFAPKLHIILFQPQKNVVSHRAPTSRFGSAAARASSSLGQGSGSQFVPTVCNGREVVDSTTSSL

[2] = target: T1, Metabotropic glutamate receptor 2; experiment: Positive allosteric modulation of human mGluR2 expressed in CHO cells assessed as incorporation of [35S]GTPgammaS at 0.3 nM to 50 uM after 30 mins by scintillation counting analysis relative to control; format: functional, cell-based
Target sequence in this assay (Q14416 19-872 limits assumed): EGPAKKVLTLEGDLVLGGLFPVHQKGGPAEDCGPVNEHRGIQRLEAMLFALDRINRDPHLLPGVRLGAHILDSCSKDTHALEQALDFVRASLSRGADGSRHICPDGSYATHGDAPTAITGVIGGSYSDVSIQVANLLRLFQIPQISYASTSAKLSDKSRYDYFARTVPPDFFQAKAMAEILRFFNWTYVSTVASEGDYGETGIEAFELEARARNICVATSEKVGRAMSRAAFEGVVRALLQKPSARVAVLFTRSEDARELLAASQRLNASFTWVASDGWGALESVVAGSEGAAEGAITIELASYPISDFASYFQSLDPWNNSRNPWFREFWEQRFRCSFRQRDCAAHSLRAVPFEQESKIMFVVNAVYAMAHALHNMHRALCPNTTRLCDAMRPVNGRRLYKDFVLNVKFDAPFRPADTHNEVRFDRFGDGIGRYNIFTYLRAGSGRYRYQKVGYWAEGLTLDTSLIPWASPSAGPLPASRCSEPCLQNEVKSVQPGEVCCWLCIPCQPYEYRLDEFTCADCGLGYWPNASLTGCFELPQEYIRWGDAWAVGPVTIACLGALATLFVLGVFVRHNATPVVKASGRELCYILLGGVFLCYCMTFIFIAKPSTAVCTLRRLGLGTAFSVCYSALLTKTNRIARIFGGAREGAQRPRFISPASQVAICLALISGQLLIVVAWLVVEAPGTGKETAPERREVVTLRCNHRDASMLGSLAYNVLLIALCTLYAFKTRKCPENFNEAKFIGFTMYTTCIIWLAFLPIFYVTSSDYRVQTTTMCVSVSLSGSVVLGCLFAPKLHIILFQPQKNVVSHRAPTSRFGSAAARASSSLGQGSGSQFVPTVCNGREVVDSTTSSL

[3] = Drug metabolism in human liver microsomes at 5 uM after 15 mins; format: ADME; details: read-out: Drug metabolism
[4] = target: T1, Metabotropic glutamate receptor 2; experiment: Positive allosteric modulation of mGluR2 (unknown origin) by FLIPR assay
Target sequence in this assay (Q14416 whole entry): as the sequence (Q14416 whole entry) above

[5] = target: T1, Metabotropic glutamate receptor 2; experiment: Potentiation of human mGluR2 expressed in CHO cells assessed as fold shift in glutamate concentration response curve at 3 uM relative to control; format: cell-based
Target sequence in this assay (Q14416 19-872 limits assumed): as the sequence (Q14416 19-872 limits assumed) above

| Structure (SMILES) | EC50 [1] [µM] | Emax [2] [%] | metabolised at 0.25 h, 5 µM [3] [%] | EC50 [4] [µM] | fold change (FC) [5] |
| --- | --- | --- | --- | --- | --- |
| CCCn1ccc2c(NCc3ccc(OC)cc3)cccc2c1=O | 0.501 | 81 |  |  |  |
| CCCn1ccc2c(NCc3ccccc3)cccc2c1=O | 2 | 80 | 38 |  |  |
| CCCn1ccc2c(NCCc3ccccc3)cccc2c1=O | 0.501 | 123 | 52 | 0.158 |  |
| CCCn1ccc2c(NCc3cccc(Oc4ccccc4)c3)cccc2c1=O | 1.26 | 65 |  |  |  |
| CCCn1ccc2c(NCc3cccc(OC)c3)cccc2c1=O | 0.316 | 129 |  |  |  |
| CCCn1ccc2c(N(C)CCc3ccc(OC)cc3)cccc2c1=O | 0.398 | 93 |  |  |  |
| CCCn1ccc2c(NCCc3ccc(OC)cc3)cccc2c1=O | 0.251 | 92 | 97 |  |  |

Now from value to compound:

| EC50 [1] [µM] | Emax [2] [%] | metabolised at 0.25 h, 5 µM [3] [%] | EC50 [4] [µM] | fold change (FC) [5] | Structure (SMILES) |
| --- | --- | --- | --- | --- | --- |
| 0.158 | 112 | 57 |  |  | CCCn1ccc2c(NCCCc3ccccc3)cccc2c1=O |
| 0.251 | 110 |  |  |  | CCCn1ccc2c(NCCc3cccc(OC)c3)cccc2c1=O |
| 0.2 | 162 | 34 |  |  | CCCn1ccc2c(NCc3cccc(OC(F)(F)F)c3)cccc2c1=O |
| 0.251 | 68 |  |  |  | CCCn1ccc2c(NCCc3ccccc3)ccc(Cl)c2c1=O |
| 0.251 | 123 |  |  |  | CCCn1ccc2c(OCCc3ccc(OC)cc3)cccc2c1=O |
| 0.126 | 137 | 91 |  |  | CCCn1ccc2c(NCCc3ccccc3OC)cccc2c1=O |
| 0.2 | 163 | 26 |  | 6.6 | CCCn1ccc2c(NCc3ccccc3Cl)cccc2c1=O |
| 0.2 | 134 |  |  |  | CCCn1ccc2c(NCCc3ccc(C)cc3)cccc2c1=O |
